Measured values published in paper PMC9377007, “An Unexpected Deuterium-Induced Metabolic Switch in Doxophylline” (ACS Medicinal Chemistry Letters, 2022).

Legend:
[1] = Comparative pharmacokinetic study, single-dose administration in minipigs; type: in vivo; details: male, Göttingen, minipig, plasma
Experimental: A comparative pharmacokinetic study was then performed by evaluating the plasma concentration profiles of doxophylline and its deuterated analogues after intravenous and oral single-dose administration in mice and minipigs. […] Since the deuterium kinetic isotope effect is often affected by interspecies variability,[28] a PK study was also performed in minipigs. […] A total of 96 CD1 male mice, approximately 6 weeks old and with a body weight of approximately 30 g, were purchased from Envigo RMS srl, (San Pietro al Natisone, UD, Italy). Four males Göttingen minipigs approximately 4-5 months old and weighing 9-11 Kg were purchased from Ellegaard Göttingen Minipigs (Dalmose, Denmark). Protocol for drug administration and blood sampling. Mice. Blood samples were collected under light isoflurane anaesthesia from the sublingual vein at the following time points (n=3): pre-dose and 5, 15, 30 minutes, 1, 2, 4, 8 and 24 hours after i.v. dosing (20 mg/Kg, dose volume 5 mL/Kg) and pre-dose and 15, 30 minutes, 1, 2, 4, 8 and 24 hours after oral gavage dosing (80 mg/Kg, dose volume 5 mL/Kg). Each animal was sampled on each day at a maximum of two alternating time points. Samples were transferred into tubes containing K3EDTA as anticoagulant, centrifuged, and stored at -80 °C. Minipig. Blood samples were collected from the jugular vein at the following time points (n=4): pre-dose and 5, 15, 30 minutes, 1, 2, 4, 8 and 24 hours after i.v. dosing (5 mg/Kg, dose volume 1 mL/Kg) and pre-dose and 15, 30 minutes, 1, 2, 4, 8 and 24 hours after oral gavage dosing (20 mg/Kg, dose volume 4 mL/Kg). Samples were transferred into tubes containing K3EDTA as anticoagulant, centrifuged, and stored at -80 °C. Sample preparation for HPLC-MS analysis. A volume of 50 µL of caffeine solution (1 mg/L in water-methanol 1:1) were added to plasma sample aliquots (50 µL); after the addition of the precipitant solution (100 µL of 10% ice-cold trichloroacetic acid in water), samples were centrifuged at 13,000 rpm for ten minutes and the supernatant injected onto the HPLC system (see supporting information for chromatographic conditions). If the levels of analytes were over range, plasma samples were preventively diluted with blank plasma. Data analysis. Quantification of doxophylline and its deuterated analogues d4 and d7 as well as their main metabolites, 7- theophylline acetic acid (T-COOH), 7-hydroxyethyl theophylline (Eto) and theophylline, was performed by using the calibration curves obtained with the corresponding working standards of the analytes and using caffeine as internal standard. The pharmacokinetic parameters for doxophylline and its deuterated analogues were calculated by plotting the plasma concentration curves versus time obtained from the average values of three animals, using PK Solver 2.0.1 S7

[2] = system: BLM-induced lung injury; experiment: Bleomycin (BLM)-induced lung injury model; type: in vivo; details: BLM-treated mice, 80 mg/kg orally daily; for fibrosis: collagen fibers, Masson's Trichrome and Picrosirius red staining, semiquantitative: versus vehicle group
Experimental: With regard to the BLM-induced lung injury, we treated mice orally with 80 mg/kg doxophylline, d4-doxophylline, or d7-doxophylline daily (Figure 6a). […] Finally, to investigate the fibrosis, we performed a semiquantitative analysis on the Masson’s Trichrome- and Picrosirius red-stained sections in order to evaluate the presence and the packing of collagen fibers. […] Furthermore, an interesting association of the inflammatory infiltrate and stromal remodeling was observed. Indeed, the decrease in the interstitial inflammatory state led to a reduction of fibrosis in the doxophylline- and d7-treated groups, as can be observed in the respective representative images.
Figure 6 Model of pulmonary fibrosis induced by bleomycin. Doxophylline and d7-doxophylline attenuate BLM-induced structural damage and lung fibrosis in mice. (a) Representative scheme of the BLM-induced lung injury model. (b) Total BAL cellularity of sham mice (not treated) and bleomycin-treated mice (treated or not with 80 mg/kg doxophylline, d4-doxophylline, or d7-doxophylline). Results are reported as mean ± SEM of three independent experiments. (c) Wet/dry lung weight ratio of sham and bleomycin-treated mice (treated or not with 80 mg/kg doxophylline, d4-doxophylline, or d7-doxophylline). Results are reported as mean ± SEM of three independent experiments. (d) MPO activity in lungs of sham and bleomycin-treated mice (treated or not with 80 mg/kg doxophylline, d4-doxophylline and d7-doxophylline). Results are reported as mean ± SEM of three independent experiments. (e) Representative images of H&E staining of sham and bleomycin-treated mice (treated or not with 80 mg/kg doxophylline, d4-doxophylline, or d7-doxophylline). (f, g) Representative images of (f) Masson’s trichrome staining and (g) Picrorius red staining of sham and bleomycin-treated mice (treated or not with 80 mg/kg doxophylline, d4-doxophylline, or d7-doxophylline). p values: *, p < 0.05; **, p < 0.01; ***, p < 0.001; ****, p < 0.0001.
8-week-old male C57Bl/6 mice (Envigo, Indianapolis, USA) weighing between 25 and 30 g were used. Animal care was in compliance with Italian regulations on protection of animals used for experimental purposes and were authorized by the Ministry of Health. We administered BLM (0.02U/50µl) by mouse pharyngeal aspiration, under isoflurane ana esthesia.2 Doxophylline, d4 or d7 ([…], solubilized in 0.9% NaCl solution) or saline treatment (vehicle) was given orally (gavage administration) 1 h before BLM treatment, and then once a day thereafter. Mice were euthanized on day 21 following BLM treatment.
BAL was performed through a tracheal cannula using 1 mL aliquots of ice -cold Ca2+/Mg2+-free phosphate-buffered medium (145 mM NaCl, 5 mM KCl, 1.9 mM NaH 2PO4, 9.35 mM Na2HPO4, and 5.5 mM dextrose, pH 7.4). BAL samples were centrifuged at 500× g for 5 min at 4 °C, and cell pellets were washed an d resuspended in phosphate -buffered medium. BAL cells were enumerated by counting on a Hemocytometer the presence of the trypan blue stain.
Myeloperoxidase (MPO) activity, a marker of polymorphonuclear leukocyte (PMN) infiltration, was determined using MPO Colorimetric Activity Assay Kit (Merck Life Science), according to the manufacturer’s protocol. MPO activity was described as the amount of enzyme degrading 1 μM of peroxide/minute at 37°C and was expressed in U/mg of wet tissue.
Evaluation of fluid content in lungs.
The wet lung weight was calculated after harvesting the lungs, without any extraneous tissue. The lung s were subjected for 72 hours at 100°C and the dry weight was measured. Water content was calculated b y subtracting dry weight from wet weight.
Lungs were fixed with 10% buffered formalin at room temperature for 48h, dehydrated in 70% ethanol, and embedded in paraffin with Diapath automatic processor. Sections (4 μm thick) were stained with hae matoxylin and eosin (H&E) according to standard protocol and samples were mounted in Eukitt (Bio -Optica). To […]

AUC(0-t) ([1]; intravenous, 5 mg/kg)	Cmax ([1]; intravenous, 5 mg/kg)	clearance ([1]; intravenous, 5 mg/kg)	half-life ([1]; intravenous, 5 mg/kg)	AUC(0-t) ([1]; oral, 20 mg/kg)	CL/F ([1]; oral, 20 mg/kg)	Cmax ([1]; oral, 20 mg/kg)	half-life ([1]; oral, 20 mg/kg)	Compound	accumulation of immune cells in bronchoalveolar lavage (total BAL cellularity) [2]	histological examination by H&E staining [2]	fibrosis: collagen fibers, Masson's Trichrome and Picrosirius red staining, semiquantitative [2]	MPO activity in lungs [2]	ratio between wet and dry lung [2]
49.2 µg·h/mL	7420 ng/mL	1.67 mL/min/kg	6.2 h	236 µg·h/mL	1.17 mL/min/kg	15800 ng/mL	10.8 h	[2H]C1([2H])OC(Cn2cnc3c2c(=O)n(C)c(=O)n3C)OC1([2H])[2H] [d4-doxophylline]	of lesser extent and lacked statistical significance	decrease in the inflammatory interstitial infiltrate	slight tendency toward reduction in thickness and packing of collagen fibers		
47 µg·h/mL	8260 ng/mL	1.67 mL/min/kg	6.5 h	222 µg·h/mL	1.17 mL/min/kg	13000 ng/mL	12.6 h	[2H]C1([2H])OC([2H])(C([2H])([2H])n2cnc3c2c(=O)n(C)c(=O)n3C)OC1([2H])[2H] [d7-doxophylline]	significantly reverted	decrease in the inflammatory interstitial infiltrate	slight tendency toward reduction in thickness and packing of collagen fibers	decreased	decreased liquid accumulation
47.7 µg·h/mL	7500 ng/mL	1.67 mL/min/kg	6.2 h	217 µg·h/mL	1.17 mL/min/kg	14000 ng/mL	11 h	Cn1c(=O)c2c(ncn2CC2OCCO2)n(C)c1=O [doxophylline]	significantly reverted	decrease in the inflammatory interstitial infiltrate	slight tendency toward reduction in thickness and packing of collagen fibers	decreased	decreased liquid accumulation
